The test system of assay [1] is pGL3(4×48) reporter gene (Sox5/6/9 binding sites). Description: PLM transfection assay, pGL3(4×48) luciferase reporter. The format is cell-based, murine. Particulars: PLM cultures, relative to control. The method, then:
(§1) Primary limb mesenchymal (PLM) cultures were established from CD-1 murine embryonic limbs (E11.5) as previously described (Hoffman et al., J. Cell 174:101-13 (2006); Weston et al., J. Cell Biol., 158:39-51 (2002)). Limb mesenchyme was dissociated by dispase treatment and a single cell suspension was obtained by filtration through a […] cell strainer (BD Biosciences). PLM cells were pelleted by centrifugation at 200×g and resuspended to produce a stock cell suspension at a concentration of 2.0×10^7 cells/ml. Cells were used for transfection (Example 2) or for establishment of cultures for alcian blue staining.
Stock plasmid DNAs were standardized to a concentration of 1 mg/ml. For co-transfections, a ratio of 3:1 gene of interest to reporter gene was used. Luciferase reporter genes consist of a firefly reporter gene, pGL3(4×48), and a Renilla (Renilla reniformis) luciferase reporter phRL-SV40 to normalize for transfection efficiency. Transfections were carried out using Effectene reagent (Qiagen). The pGL3(4×48) reporter contains four repeats of a Sox5/6/9 binding site. Reporter plasmids containing Sox5/6/9 binding sites (pGL3[4×48]) were previously described (Weston et al., J. Cell Biol., 158:39-51 (2002)).
This dose range is consistent with previous studies on butamben binding and inhibition of potassium channels. […]
A general note: Reporter assays use an easily measured gene product as a stand-in for the process of interest.

In another assay the test system is Sox9. Put plainly: Sox9 expression in PLM cultures by RT-qPCR. The format is cell-based, murine. Particulars: PLM cultures treated for 1 or 3 days, relative to control. As to the method: as §1
To follow the expression of transcripts for Kcnd2 and Sox9, quantitative real-time PCR was performed using the 7500 Fast Sequence Detection System (Applied Biosystems). The primer/probe set used for detection of Sox9 was as described in Weston et al., J. Cell Biol., 158:39-51 (2002). For detection of all other transcripts, TaqMan Gene Expression Assays (Applied Biosystems) were used. Total RNA was isolated from primary cultures, and an aliquot was reverse transcribed to cDNA using a High Capacity cDNA Archive kit (Applied Biosystems). Quantification was performed using ˜10 ng of total RNA and the expression of all genes relative to endogenous rRNA was determined using TaqMan Ribosomal Control Reagents (Applied Biosystems). […]
A general note: In qPCR the cycle at which signal appears reflects the starting amount.

The test system of assay [2] is primary limb mesenchymal (PLM) cultures. Put plainly: alcian blue staining of PLM cultures. Type of assay: cell-based, murine. The settings on record: PLM transfection assays and alcian blue staining experiments. The method, then: Primary limb mesenchymal (PLM) cultures were established from CD-1 murine embryonic limbs (E11.5) as previously described (Hoffman et al., J. Cell 174:101-13 (2006); Weston et al., J. Cell Biol., 158:39-51 (2002)). Limb mesenchyme was dissociated by dispase treatment and a single cell suspension was obtained by filtration through a […] cell strainer (BD Biosciences). PLM cells were pelleted by centrifugation at 200×g and resuspended to produce a stock cell suspension at a concentration of 2.0×10^7 cells/ml. Cells were used for transfection (Example 2) or for establishment of cultures for alcian blue staining. For the latter, 10 μl of PLM cells were spotted into the well of a 24-well plate, and allowed to adhere for 1 h. Culture medium consisting of 60% Ham's F12 nutrient mix/40% Dulbecco's modified Eagle's medium (DMEM) and supplemented with 10% FBS (Qualified, Invitrogen) was added to each well; this time was considered T=0. Cultures were maintained for a period of up to 4 days, and culture media was replaced on alternate days to minimize handling. For alcian blue staining, culture medium was aspirated and cells were washed once with PBS. Cultures were fixed in 95% ethanol at −20° C. overnight. Fixative was removed by aspiration and cells were sequentially washed once with PBS, followed by 0.2M HCl. Cells were stained overnight with a 1% alcian blue solution prepared in 0.2M HCl.

The subject of a further assay is pGL3(4×48) reporter. Description: pGL3(4×48) reporter in high-density murine limb bud-derived cultures, compounds alone or in combination. Type of assay: cell-based. Particulars: BMP4 20 ng/ml, BAB 10 μM, 4310 100 nM; 24 h and 72 h after treatment; normalized to untreated controls. As to the method: High-density murine limb bud-derived cultures were established as previously described (Hoffman 2006). Media was replaced every two days. Cells were transfected on day 0 with pGL3(4×48) (reporter) and phRL-SV40 (to normalize transfection efficiency) plasmids using Effectene transfection reagent (Qiagen). Twenty-four hours after transfection, cells were treated with the following final concentrations of compounds, either individually or in combination: BMP4 (20 ng/ml), butamben (BAB) (10 μM), and the pan-RAR antagonist 4310 (100 nM). Lysates were collected at 24 h and 72 h after treatment. Luciferase activity was measured using the Dual-Luciferase® kit according to the manufacturer's instructions (Promega). Reporter activity was normalized to untreated controls (−) on the same day.

A further assay relates to Mmp13. Put plainly: Mmp13 mRNA in murine limb bud-derived high-density cultures, TaqMan real-time PCR. The settings on record: BMP4 20 ng/ml, BAB 10 μM, 4310 100 nM; RNA at five and ten days; normalized to 5-day control. The format is cell-based. As to the method:
Murine limb bud-derived high-density cultures were established as previously described (Hoffman 2006). Media was replaced every three days. After 24 hours of culture, compounds were added at the following final concentrations: BMP4 (20 ng/ml), BAB (10 μM), and 4310 (100 nM). After 72 hours of culture, ascorbic acid and beta-glycerol phosphate were added to the culture at final concentrations of 126 μM and 1 mM, respectively. RNA was isolated from cultures at five and ten days. Gene expression was assessed using real-time PCR with TaqMan® probe and primer sets (Applied Biosystems, Taqman Gene Expression Assay Mm00439491_m1). All gene expression levels were normalized to the 5-day control (set at 100%). Results are shown in FIG. 7 and are the average of two replicates.

The target in assay [3] is T1, Kv4.2 potassium channel encoded by Kcnd2 (Homo sapiens, UniProt Q9NZV8).
T1 sequence (Q9NZV8 1-630): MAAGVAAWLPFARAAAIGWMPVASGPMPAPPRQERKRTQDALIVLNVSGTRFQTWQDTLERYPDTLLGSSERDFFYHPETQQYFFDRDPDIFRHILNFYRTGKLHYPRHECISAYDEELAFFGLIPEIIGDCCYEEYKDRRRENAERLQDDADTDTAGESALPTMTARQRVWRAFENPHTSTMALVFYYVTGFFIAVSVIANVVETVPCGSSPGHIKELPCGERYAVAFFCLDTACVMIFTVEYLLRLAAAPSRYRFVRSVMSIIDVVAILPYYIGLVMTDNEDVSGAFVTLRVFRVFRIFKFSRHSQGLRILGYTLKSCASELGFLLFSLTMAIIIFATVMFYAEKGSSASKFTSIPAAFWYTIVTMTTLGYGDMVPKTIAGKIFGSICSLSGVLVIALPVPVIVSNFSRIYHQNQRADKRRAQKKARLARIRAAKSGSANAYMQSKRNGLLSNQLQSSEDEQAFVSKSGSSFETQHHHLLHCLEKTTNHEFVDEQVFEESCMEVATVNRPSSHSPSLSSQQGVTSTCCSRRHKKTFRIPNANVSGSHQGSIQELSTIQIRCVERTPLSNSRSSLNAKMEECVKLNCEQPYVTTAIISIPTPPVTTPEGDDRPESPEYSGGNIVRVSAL
The settings on record: Winkelman et al. 2005; cited from earlier work.

The test system of assay [4] is voltage-gated potassium channel Kv1 and 4 classes. The settings on record: Winkelman et al. 2005; Beekwilder et al. 2003; cited from earlier work.

As for `Nc1ccncc1` [4-AP, 4-aminopyridine], the “activity of chondrogenic responsive reporter gene pGL3(4×48)” value in assay [1] was “significantly induces”.

In the case of `CCCCOC(=O)c1ccc(N)cc1` [butamben, butyl 4-aminobenzoate], in the assay on Sox9, the Sox9 expression entry was “increased Sox9 expression”. Further, the “activity of chondrogenic responsive reporter gene pGL3(4×48)” value in assay [1] is listed as “significantly increase”. In assay [2], the chondrogenic activity result is “low micromolar concentrations of butamben stimulate chondrogenic activity”. In the assay with pGL3(4×48) reporter, the “pGL3(4×48) reporter gene activity” value was “increased”. Also, in the assay on Mmp13, the Mmp13 expression result is “markedly decreased”. Also, the “block of Kv4.2 potassium channel” value in assay [3] is on record as “blocked”. Also, the “block of voltage-gated potassium channel Kv1 and 4 classes” value in assay [4] is “blocks”.

B1: BMP4: bone morphogenetic protein-4 (protein, UniProt P12644 293-408, looked up)
Bone morphogenetic protein 4: SPKHHSQRARKKNKNCRRHSLYVDFSDVGWNDWIVAPPGYQAFYCHGDCPFPLADHLNSTNHAIVQTLVNSVNSSIPKACCVPTELSAISMLYLDEYDKVVLKNYQEMVVEGCGCR
B1: in the assay on pGL3(4×48) reporter, the “pGL3(4×48) reporter gene activity” value is on record as “increased”. For the same molecule, the Mmp13 expression result in the assay on Mmp13 is recorded as “increased”.

The values are drawn from patent US20110236461A1, “METHODS FOR STIMULATING CHONDROGENESIS UTILIZING A POTASSIUM CHANNEL INHIBITOR” (priority 2008, published 2011).
